What was measured:
STAT6 = target: T1, STAT6 (Homo sapiens, UniProt P42226); assay: STAT6 Fluorescence Polarization (FP) Assay; format: binding; conditions: recombinant STAT6(W123-T658) 250 nM; probe 5-FAM-Ap[…]-NH2 2 nM; 45 min, room temperature; read-out: STAT6 FP IC50
T1 construct: Recombinant STAT6 protein (STAT6(W123-T658))
T1 sequence (P42226 123-658): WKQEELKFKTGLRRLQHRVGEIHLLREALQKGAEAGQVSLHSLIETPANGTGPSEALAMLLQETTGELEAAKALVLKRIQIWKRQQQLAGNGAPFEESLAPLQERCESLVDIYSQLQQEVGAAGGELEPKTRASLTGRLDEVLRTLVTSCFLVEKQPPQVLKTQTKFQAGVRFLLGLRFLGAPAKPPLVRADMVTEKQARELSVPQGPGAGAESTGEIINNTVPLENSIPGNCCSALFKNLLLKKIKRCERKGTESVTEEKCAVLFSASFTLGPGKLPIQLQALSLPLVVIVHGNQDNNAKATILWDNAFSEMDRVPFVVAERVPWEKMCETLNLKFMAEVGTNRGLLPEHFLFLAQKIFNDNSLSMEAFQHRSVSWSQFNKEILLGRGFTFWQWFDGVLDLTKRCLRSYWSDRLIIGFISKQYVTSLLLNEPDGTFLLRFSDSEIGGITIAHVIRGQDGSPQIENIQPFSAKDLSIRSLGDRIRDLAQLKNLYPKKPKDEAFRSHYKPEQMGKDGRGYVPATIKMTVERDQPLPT
Method: STAT6 Fluorescence Polarization (FP) Assay
An FP assay was developed to determine IC50 values for test substances. Recombinant STAT6 protein (STAT6(W123-T658)) at 250 nM was combined with a fluorescently labeled, phosphotyrosine peptide probe (5-FAM-Ap[…]-NH2) at 2 nM in FP buffer (10 mM HEPES pH 7.4, 50 mM NaCl, 1 mM EDTA, 0.05% Tween 20, 2 mM DTT), 50 μL of STAT6-probe mixture was added to serial diluted compounds in black, 96-well plates (Greiner BioOne 655076) to a final concentration of 1% DMSO. Reaction components were mixed, and FP was measured after 45-minute incubation at room temperature using a Tecan Spark multimode plate reader. FP signal (mP) was plotted against the log concentration of the test substances and IC50 values were calculated by nonlinear regression analysis using GraphPad Prism software. For STAT6 FP assay. A=≤300 nM; B=>300-3000 nM; C=>3-30 μM; and D=>30 μM.

pSTAT6 = target: T2, pSTAT6 (Homo sapiens, UniProt P42226); assay: MSD-pSTAT-PBMC Assay, pSTAT6 (IL-4 stimulated PBMC); format: cell-based; conditions: compound 3 hrs, then 1 ng/mL IL-4 for 10 min, pY641-STAT6, read-out: pSTAT6 IC50
T2 construct: pY641-STAT6 MSD read-out
T2 sequence (P42226 1-847): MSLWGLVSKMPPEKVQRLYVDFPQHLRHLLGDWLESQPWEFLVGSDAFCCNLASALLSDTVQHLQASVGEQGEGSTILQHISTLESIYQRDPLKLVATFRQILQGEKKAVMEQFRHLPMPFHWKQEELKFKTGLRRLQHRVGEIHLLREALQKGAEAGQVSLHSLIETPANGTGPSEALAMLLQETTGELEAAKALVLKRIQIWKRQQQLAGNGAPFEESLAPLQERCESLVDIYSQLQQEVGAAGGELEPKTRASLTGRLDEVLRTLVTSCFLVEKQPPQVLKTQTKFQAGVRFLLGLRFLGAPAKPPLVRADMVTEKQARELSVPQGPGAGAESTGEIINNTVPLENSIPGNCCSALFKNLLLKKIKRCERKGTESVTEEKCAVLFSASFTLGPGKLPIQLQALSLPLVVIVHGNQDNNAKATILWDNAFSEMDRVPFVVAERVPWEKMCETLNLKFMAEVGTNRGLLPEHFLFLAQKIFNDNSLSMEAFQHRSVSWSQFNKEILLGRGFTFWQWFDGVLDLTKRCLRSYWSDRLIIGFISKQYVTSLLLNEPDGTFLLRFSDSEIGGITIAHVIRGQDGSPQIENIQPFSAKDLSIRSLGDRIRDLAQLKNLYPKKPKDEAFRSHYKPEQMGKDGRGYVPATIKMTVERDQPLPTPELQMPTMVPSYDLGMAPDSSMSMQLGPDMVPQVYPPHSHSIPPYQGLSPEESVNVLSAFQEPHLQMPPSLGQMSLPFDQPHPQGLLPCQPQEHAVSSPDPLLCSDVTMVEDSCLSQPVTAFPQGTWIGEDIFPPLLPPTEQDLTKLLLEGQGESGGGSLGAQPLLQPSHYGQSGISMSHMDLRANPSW
From the text: Cryopreserved Peripheral Blood Mononuclear Cells (PBMC) are from AllCells. Recombinant Human IL-4 and IL-6 are from Peprotech. Mouse monoclonal anti-STAT3 antibody, rabbit monoclonal anti-pY705-STAT3 antibody, rabbit monoclonal Anti-pY641-STAT6 antibody, and lysis buffer are from Cell Signaling Technology (CST). Mouse monoclonal anti-STAT6 antibody is from BioLegend. Assay plates, blocker, and anti-rabbit secondary antibody are from Meso Scale Discovery (MSD).
Cryopreserved PBMCs were thawed out and allowed to recover overnight in IMDM+10% heat-inactivated FBS prior to plating 50,000 (STAT3) or 25,000 (STAT6) cells per well in 96-well U-bottom tissue culture plates. Cells were treated with compound for 3 hrs. then stimulated with 10 ng/mL IL-6 (STAT3) or 1 ng/mL IL-4 (STAT6) for 10 min. Cells were then spun down and washed with ice-cold PBS prior to lysing the cell pellet with 1× lysis buffer (CST) with 1×HALT protease and phosphatase inhibitor cocktail (Thermo). Lysates were transferred to and incubated overnight at 4° C. with shaking in QuickPlex 96-well high bind assay plates (MSD) pre-coated overnight with 30 μL per well of 0.6 μg/mL mouse monoclonal anti-STAT3 antibody (STAT3) or 2 μg/mL mouse monoclonal anti-STAT6 antibody (STAT6) in 1×PBS, and pre-blocked for 1 hour with 3% Blocker-A (MSD). Captured protein in the assay plates were then washed and probed with 25 μL per well of 0.25 μg/ml rabbit monoclonal anti-pY705-STAT3 antibody (STAT3) or 0.18 μg/ml rabbit monoclonal Anti-pY641-STAT6 antibody (STAT6) in 1% Blocker-A for 1 hour at room temperature with shaking, then washed and probed with 25 ul per well of 1 ug/ml Sulfo-TAG Labeled Goat Anti-Rabbit Antibody (MSD) in 1% Blocker-A for 1 hour at room temperature with shaking. Assay plates were then washed and 150 μL of 1× Read Buffer-T (MSD) was added to each well prior to reading on an SQ120 MSD Plate Reader. Assay signal from each sample was subtracted by the signal from unstimulated control wells and normalized to DMSO control wells. IC50 values were calculated using Graph Pad Prism Dose-Response Nonlinear Regression with variable slope. For both pSTAT3 and pSTAT6 A=≤100 nM; B=>100-1000 nM; C=>1000-3000 nM; and D=>3 μM.

STAT3 = target: T3, STAT3 (Homo sapiens, UniProt P40763); assay: STAT3 Fluorescence Polarization (FP) Assay; format: binding; conditions: recombinant STAT3 25 nM; probe 5-FAM-GpYLPQTV-NH2 2 nM; 45 min, room temperature; read-out: STAT3 FP IC50
T3 construct: Recombinant STAT3 protein (STAT3(G127-1722))
Method: STAT3 Fluorescence Polarization (FP) Assay
An FP assay was developed to determine IC50 values for test substances. Recombinant STAT3 protein (STAT3(G127-1722)) at 25 nM was combined with a fluorescently labeled, phosphotyrosine peptide probe (5-FAM-GpYLPQTV-NH2) at 2 nM in FP buffer (10 mM HEPES pH 7.4, 50 mM NaCl, 1 mM EDTA, 0.05% Tween 20.2 mM DTT). 50 μL of STAT3-probe mixture was added to serial diluted compounds in black, 96-well plates (Greiner BioOne 655076) to a final concentration of 1% DMSO. Reaction components were mixed, and FP was measured after 45-minute incubation at room temperature using a Tecan Spark multimode plate reader. FP signal (mP) was plotted against the log concentration of the test substances and IC50 values were calculated by nonlinear regression analysis using GraphPad Prism software. For STAT3 FP assay. A=≤100 nM; B=>100-1000 nM; C=>1-10 μM; and D=>10 μM.

T3 sequence (P40763 127-722 limits assumed): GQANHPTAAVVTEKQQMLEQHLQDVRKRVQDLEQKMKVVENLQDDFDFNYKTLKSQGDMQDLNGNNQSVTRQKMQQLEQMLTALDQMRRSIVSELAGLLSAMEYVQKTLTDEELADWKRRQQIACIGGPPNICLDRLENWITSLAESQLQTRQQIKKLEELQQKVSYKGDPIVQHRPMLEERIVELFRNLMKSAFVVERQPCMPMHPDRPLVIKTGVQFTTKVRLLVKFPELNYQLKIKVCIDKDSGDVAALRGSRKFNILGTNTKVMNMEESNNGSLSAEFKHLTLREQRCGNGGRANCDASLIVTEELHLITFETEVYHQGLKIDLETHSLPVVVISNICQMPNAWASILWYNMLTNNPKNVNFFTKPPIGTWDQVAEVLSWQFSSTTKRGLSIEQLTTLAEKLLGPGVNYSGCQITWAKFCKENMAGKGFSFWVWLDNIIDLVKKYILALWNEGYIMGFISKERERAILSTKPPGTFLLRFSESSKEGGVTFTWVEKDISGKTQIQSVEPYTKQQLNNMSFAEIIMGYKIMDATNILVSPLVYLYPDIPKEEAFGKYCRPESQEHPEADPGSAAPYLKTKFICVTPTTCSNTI

IC50 (STAT6)	IC50 (pSTAT6)	IC50 (STAT3)	Structure (SMILES)
< 0.3 µM	> 3 µM	1 to 10 µM	Cc1ccc2onc(C(=O)N3CC[C@H]4CC[C@@H](C(=O)N(C)CCCC(=O)N[C@H](C(=O)N5C[C@H](O)C[C@H]5C(=O)N[C@@H](C)c5ccc(-c6scnc6C)cc5)C(C)(C)C)N4C(=O)[C@@H](NC(=O)c4ccc5ccc(C(F)(F)P(=O)(O)O)cc5c4)C3)c2c1 [Compound 29, (difluoro(7-(((5S,8S,10aR)-8-((4-(((S)-1-((2S,4R)-4-hydroxy-2-(((S)-1-(4-(4-methylthiazol-5-yl)phenyl)ethyl)carbamoyl)pyrrolidin-1-yl)-3,3-dimethyl-1-oxobutan-2-yl)amino)-4-oxobutyl)(methyl)carbamoyl)-3-(5-methylbenzo[d]isoxazole-3-carbonyl)-6-oxodecahydropyrrolo[1,2-a][1,5]diazocin-5-yl)carbamoyl)naphthalen-2-yl)methyl)phosphonic acid]
< 0.3 µM	> 3 µM	1 to 10 µM	Cc1ccc2onc(C(=O)N3CC[C@H]4CC[C@@H](C(=O)N(C)CCCCOc5ccc(C6CCC(=O)NC6=O)cc5)N4C(=O)[C@@H](NC(=O)c4ccc5ccc(C(F)(F)P(=O)(O)O)cc5c4)C3)c2c1 (stereo partly drawn) [Compound 30, ((7-(((5S,8S,10aR)-8-((4-(4-(2,6-dioxopiperidin-3-yl)phenoxy)butyl)(methyl)carbamoyl)-3-(5-methylbenzo[d]isoxazole-3-carbonyl)-6-oxodecahydropyrrolo[1,2-a][1,5]diazocin-5-yl)carbamoyl)naphthalen-2-yl)difluoromethyl)phosphonic acid]
0.3 to 3 µM	> 3 µM	1 to 10 µM	Cc1ccc2onc(C(=O)N3CC[C@H]4CC[C@@H](C(=O)NCCOc5cc(C(C(=O)N6C[C@H](O)C[C@H]6C(=O)N[C@H](C)c6ccc(-c7scnc7C)cc6)C(C)C)on5)N4C(=O)[C@@H](NC(=O)c4ccc5ccc(C(F)(F)P(=O)(O)O)cc5c4)C3)c2c1 (stereo partly drawn) [Compound 32, (difluoro(7-(((5S,8S,10aR)-8-((2-((5-(1-((2S,4R)-4-hydroxy-2-(((R)-1-(4-(4-methylthiazol-5-yl)phenyl)ethyl)carbamoyl)pyrrolidin-1-yl)-3-methyl-1-oxobutan-2-yl)isoxazol-3-yl)oxy)ethyl)carbamoyl)-3-(5-methylbenzo[d]isoxazole-3-carbonyl)-6-oxodecahydropyrrolo[1,2-a][1,5]diazocin-5-yl)carbamoyl)naphthalen-2-yl)methyl)phosphonic acid]
< 0.3 µM	> 3 µM	1 to 10 µM	Cc1ccc2onc(C(=O)N3CC[C@H]4CC[C@@H](C(=O)N5CCN(c6cc(C(C(=O)N7C[C@H](O)C[C@H]7C(=O)N[C@H](C)c7ccc(-c8scnc8C)cc7)C(C)C)on6)CC5)N4C(=O)[C@@H](NC(=O)c4ccc5ccc(C(F)(F)P(=O)(O)O)cc5c4)C3)c2c1 (stereo partly drawn) [Compound 33, (difluoro(7-(((5S,8S,10aR)-8-(4-(5-(1-((2S,4R)-4-hydroxy-2-(((R)-1-(4-(4-methylthiazol-5-yl)phenyl)ethyl)carbamoyl)pyrrolidin-1-yl)-3-methyl-1-oxobutan-2-yl)isoxazol-3-yl)piperazine-1-carbonyl)-3-(5-methylbenzo[d]isoxazole-3-carbonyl)-6-oxodecahydropyrrolo[1,2-a][1,5]diazocin-5-yl)carbamoyl)naphthalen-2-yl)methyl)phosphonic acid]
< 0.3 µM	> 3 µM	1 to 10 µM	Cc1ccc2onc(C(=O)N3CC[C@H]4CC[C@@H](C(=O)N5CCN(c6ccc7c(c6)[nH]c(=O)n7C6CCC(=O)NC6=O)CC5)N4C(=O)[C@@H](NC(=O)c4ccc5ccc(C(F)(F)P(=O)(O)O)cc5c4)C3)c2c1 (stereo partly drawn) [Compound 34, ((7-(((5S,8S,10aR)-8-(4-(1-(2,6-dioxopiperidin-3-yl)-2-oxo-2,3-dihydro-1H-benzo[d]imidazol-5-yl)piperazine-1-carbonyl)-3-(5-methylbenzo[d]isoxazole-3-carbonyl)-6-oxodecahydropyrrolo[1,2-a][1,5]diazocin-5-yl)carbamoyl)naphthalen-2-yl)difluoromethyl)phosphonic acid]
< 0.3 µM	> 3 µM	> 10 µM	Cc1ccc2onc(C(=O)N3CC[C@H]4CC[C@@H](C(=O)Nc5cccc6c5CN(C5CCC(=O)NC5=O)C6=O)N4C(=O)[C@@H](NC(=O)c4ccc5ccc(C(F)(F)P(=O)(O)O)cc5c4)C3)c2c1 (stereo partly drawn) [Compound 35, ((7-(((5S,8S,10aR)-8-((2-(2,6-dioxopiperidin-3-yl)-1-oxoisoindolin-4-yl)carbamoyl)-3-(5-methylbenzo[d]isoxazole-3-carbonyl)-6-oxodecahydropyrrolo[1,2-a][1,5]diazocin-5-yl)carbamoyl)naphthalen-2-yl)difluoromethyl)phosphonic acid]

Source: US20260308186A1, “STAT DEGRADERS AND USES THEREOF” (Recludix Pharma, Inc., priority 2023, published 2026)
